Common to all, as to experiment: In vitro HDACs Inhibition Fluorescence Assay
The target in one test is T1, Histone deacetylase 8 (Homo sapiens, UniProt Q9BY41).
T1 sequence (Q9BY41 whole entry): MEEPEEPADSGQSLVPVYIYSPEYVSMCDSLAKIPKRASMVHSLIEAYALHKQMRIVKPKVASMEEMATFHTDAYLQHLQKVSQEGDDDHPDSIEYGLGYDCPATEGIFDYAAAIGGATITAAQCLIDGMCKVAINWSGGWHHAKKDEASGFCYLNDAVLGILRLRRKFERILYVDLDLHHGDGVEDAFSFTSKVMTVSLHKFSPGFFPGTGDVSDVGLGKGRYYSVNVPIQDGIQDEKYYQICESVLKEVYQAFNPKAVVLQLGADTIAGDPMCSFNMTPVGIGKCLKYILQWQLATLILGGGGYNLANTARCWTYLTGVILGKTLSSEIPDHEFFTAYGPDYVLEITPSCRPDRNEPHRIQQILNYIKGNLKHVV
The protocol:
(§1) Afterincubation at 37 °C for 10 min, 40 μL of fluorogenic substrate (Boc-Lys(Ac)-AMC for HeLa nuclear extracts; Ac-Leu- GlyLyS(Ac)-AMC for HDAC1, HDAC6, and HDAC11; Ac-Leu-GlyLyS(Tfa)-AMC for HDAC4 and HDAC8) was added, and then, the mixture was incubated at 37 °C for 30 min. The mixture was stopped by addition of 100 μL of developer containing trypsin and TSA afterward. Over the next incubation at 37 °C for 20 min, fluorescence intensity was measured using a microplate reader at excitation and emission wavelengths of 390 and 460 nm, respectively.

The target of the next test is T2, Histone deacetylase 6 (Homo sapiens, UniProt Q9UBN7).
T2 sequence (Q9UBN7 whole entry): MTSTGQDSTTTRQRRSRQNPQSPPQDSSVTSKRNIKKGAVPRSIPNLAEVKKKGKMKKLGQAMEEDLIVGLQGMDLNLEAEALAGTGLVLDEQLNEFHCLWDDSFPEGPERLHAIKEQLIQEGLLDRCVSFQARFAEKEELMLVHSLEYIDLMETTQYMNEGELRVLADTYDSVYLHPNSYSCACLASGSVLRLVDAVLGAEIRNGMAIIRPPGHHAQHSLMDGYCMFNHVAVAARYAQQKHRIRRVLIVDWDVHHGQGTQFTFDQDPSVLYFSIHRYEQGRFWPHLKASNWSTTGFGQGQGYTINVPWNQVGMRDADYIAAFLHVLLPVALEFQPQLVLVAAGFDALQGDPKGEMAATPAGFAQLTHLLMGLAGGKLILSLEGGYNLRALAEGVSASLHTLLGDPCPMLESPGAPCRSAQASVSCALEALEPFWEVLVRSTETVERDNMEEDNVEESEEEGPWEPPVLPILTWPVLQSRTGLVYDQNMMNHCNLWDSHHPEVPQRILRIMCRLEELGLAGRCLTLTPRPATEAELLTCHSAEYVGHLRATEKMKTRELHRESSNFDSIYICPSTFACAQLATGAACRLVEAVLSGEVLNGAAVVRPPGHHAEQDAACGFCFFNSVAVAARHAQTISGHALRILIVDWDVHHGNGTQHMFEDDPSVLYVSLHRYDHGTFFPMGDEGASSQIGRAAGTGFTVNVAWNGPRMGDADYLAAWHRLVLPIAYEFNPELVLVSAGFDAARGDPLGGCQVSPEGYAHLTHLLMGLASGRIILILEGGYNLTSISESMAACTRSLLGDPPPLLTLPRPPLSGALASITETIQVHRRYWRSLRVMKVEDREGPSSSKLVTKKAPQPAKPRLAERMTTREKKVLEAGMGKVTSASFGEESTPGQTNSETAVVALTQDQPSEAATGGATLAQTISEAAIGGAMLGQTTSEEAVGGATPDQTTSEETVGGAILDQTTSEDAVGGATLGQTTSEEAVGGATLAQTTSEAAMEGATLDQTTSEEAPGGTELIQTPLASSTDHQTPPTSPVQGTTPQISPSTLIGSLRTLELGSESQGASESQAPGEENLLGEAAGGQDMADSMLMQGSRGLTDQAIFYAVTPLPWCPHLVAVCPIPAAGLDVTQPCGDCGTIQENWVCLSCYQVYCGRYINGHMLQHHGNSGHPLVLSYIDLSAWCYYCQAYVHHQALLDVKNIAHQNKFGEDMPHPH
The protocol:
as §1

For a further test, the target named is Histone deacetylase 1 (Homo sapiens, UniProt Q13547). The protocol: as §1
The target in the next test is Histone deacetylase 4 (Homo sapiens, UniProt P56524). The method, then: as §1
Another test deals with T3, Histone deacetylase 11 (Homo sapiens, UniProt Q96DB2).
T3 sequence (Q96DB2 whole entry): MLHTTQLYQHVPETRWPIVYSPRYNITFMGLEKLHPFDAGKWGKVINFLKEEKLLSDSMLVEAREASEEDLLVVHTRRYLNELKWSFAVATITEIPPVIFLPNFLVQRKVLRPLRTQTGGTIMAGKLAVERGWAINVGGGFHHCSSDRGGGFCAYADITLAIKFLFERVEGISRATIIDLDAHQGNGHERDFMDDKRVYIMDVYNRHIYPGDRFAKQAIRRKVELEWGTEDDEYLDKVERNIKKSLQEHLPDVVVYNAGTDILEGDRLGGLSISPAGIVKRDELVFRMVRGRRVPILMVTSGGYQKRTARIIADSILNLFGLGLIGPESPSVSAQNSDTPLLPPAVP
The protocol: as §1

SMILES strings stand for the structures.

Histone deacetylase 4, sequence (P56524 whole entry): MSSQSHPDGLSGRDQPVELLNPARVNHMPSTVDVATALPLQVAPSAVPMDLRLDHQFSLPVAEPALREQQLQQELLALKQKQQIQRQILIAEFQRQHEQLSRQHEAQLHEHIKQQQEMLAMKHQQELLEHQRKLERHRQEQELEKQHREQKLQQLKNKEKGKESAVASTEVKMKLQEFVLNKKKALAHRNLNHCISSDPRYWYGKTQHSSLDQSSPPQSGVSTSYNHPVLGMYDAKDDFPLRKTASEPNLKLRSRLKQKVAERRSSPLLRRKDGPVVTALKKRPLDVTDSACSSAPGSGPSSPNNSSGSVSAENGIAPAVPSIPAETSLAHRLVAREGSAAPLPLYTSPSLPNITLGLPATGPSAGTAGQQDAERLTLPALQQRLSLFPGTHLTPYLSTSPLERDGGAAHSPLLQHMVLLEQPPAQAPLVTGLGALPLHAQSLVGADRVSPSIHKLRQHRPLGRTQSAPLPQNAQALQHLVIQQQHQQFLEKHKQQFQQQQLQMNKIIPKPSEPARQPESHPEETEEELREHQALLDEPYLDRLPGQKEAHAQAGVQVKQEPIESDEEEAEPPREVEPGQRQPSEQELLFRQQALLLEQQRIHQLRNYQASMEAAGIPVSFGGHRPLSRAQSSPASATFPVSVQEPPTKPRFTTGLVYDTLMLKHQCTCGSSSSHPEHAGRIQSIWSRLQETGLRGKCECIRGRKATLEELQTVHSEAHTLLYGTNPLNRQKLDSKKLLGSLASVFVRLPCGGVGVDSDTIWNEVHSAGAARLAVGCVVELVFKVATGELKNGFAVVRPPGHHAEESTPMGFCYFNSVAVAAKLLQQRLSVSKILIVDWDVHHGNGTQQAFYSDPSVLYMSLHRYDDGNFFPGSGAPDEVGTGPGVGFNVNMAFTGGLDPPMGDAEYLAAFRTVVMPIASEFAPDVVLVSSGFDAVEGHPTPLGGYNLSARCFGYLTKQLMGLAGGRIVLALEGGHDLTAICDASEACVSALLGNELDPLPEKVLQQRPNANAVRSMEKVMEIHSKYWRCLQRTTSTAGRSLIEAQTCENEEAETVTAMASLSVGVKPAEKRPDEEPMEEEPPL
Histone deacetylase 1, sequence (Q13547 whole entry): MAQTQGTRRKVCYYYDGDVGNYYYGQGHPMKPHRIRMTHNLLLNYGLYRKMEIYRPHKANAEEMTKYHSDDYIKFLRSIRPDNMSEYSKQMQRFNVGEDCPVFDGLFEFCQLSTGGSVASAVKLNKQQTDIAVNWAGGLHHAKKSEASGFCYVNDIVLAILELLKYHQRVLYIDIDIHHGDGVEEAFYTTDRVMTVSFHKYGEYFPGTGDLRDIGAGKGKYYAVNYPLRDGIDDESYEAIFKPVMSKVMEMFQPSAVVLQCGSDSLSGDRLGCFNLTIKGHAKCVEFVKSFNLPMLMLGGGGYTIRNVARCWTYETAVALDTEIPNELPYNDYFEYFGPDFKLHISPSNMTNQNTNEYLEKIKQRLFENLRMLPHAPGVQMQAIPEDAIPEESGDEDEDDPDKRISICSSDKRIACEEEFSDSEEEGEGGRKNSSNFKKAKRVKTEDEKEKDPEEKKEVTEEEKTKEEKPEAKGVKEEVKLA

For orientation: IC50 means the concentration needed to halve the response being measured. Low readings indicate greater potency in that assay, high ones weaker potency in that assay. For the molecule `O=C(/C=C/c1cccc(S(=O)(=O)N[C@H](C(=O)Nc2cccc3ccccc23)c2ccccc2)c1)NO` [(S,E)-N-hydroxy-3-(3-(N-(2-(naphthalen-1-ylamino)-2-oxo-1-phenylethyl)sulfamoyl)phenyl)acrylamide (10s)], the IC50 on Histone deacetylase 8 was 659 nM; against Histone deacetylase 6, 80 nM; against Histone deacetylase 1, 93 nM; at Histone deacetylase 4, 23000 nM; at Histone deacetylase 11, 3850 nM.
`O=C(/C=C/c1cccc(S(=O)(=O)Nc2ccccc2)c1)NO` [Belinostat]: it took 9850 nM to reach half-maximal inhibition against Histone deacetylase 4 (IC50).

(Values after BindingDB's records for doi:10.1111/cbdd.12787 (Shandong University, 2016).)
